Data from patent US20240285634A1, “COMPOUND AND METHOD FOR TREATING CHEMOTHERAPY-ASSOCIATED GASTROINTESTINAL SIDE EFFECTS” (ONQUALITY PHARMACEUTICALS CHINA LTD., priority 2021, published 2024).
Structures can show the parent of a compound that is named as a salt.

Key:
[1] = test system: Balb/c mice, constipation caused by continuous administration of a chemotherapeutic agent; assay: Relieving effect on constipation caused by the continuous administration of a chemotherapeutic agent (Examples 385-405); type: in vivo
Text: Balb/c mice were fed for 1 week, and then divided into groups. The experiment was divided into a control group, a chemotherapeutic agent group, and a group of the compound as shown in Formula I, each of which comprised 10 mice, to perform the administration experiment, for which the administration dosage, mode, time and frequency were shown in Table 6. The control group: being injected or intragastrically administered with the same solvent as that used in the group of the compound as shown in Formula I (the administration mode and time were shown in Table 6), and then being injected or intragastrically administered with the same solvent as that used in the group of the compound as shown in Formula I (the administration mode was shown in Table 6); the chemotherapeutic agent group: being injected or intragastrically administered with the same solvent as that used in the group of the compound as shown in Formula I (the administration mode and time were shown in Table 6), and then being injected or intragastrically administered with the chemotherapeutic agent (the type, administration mode, time and dosage were shown in Table 6); the group of the compound as shown in Formula I: being injected or intragastrically administered with the compound as shown in Formula I (the administration mode and time were shown in Table 6), and then being administered with the chemotherapeutic agent (the type, administration mode, time and dosage were shown in Table 6).
(§1) The feces reduction rate was calculated with reference to the method of Ji Eun Kim (Lab Anim Res. 2016 December; 32(4): 231-240.). Feces reduction rate (%)=(the control group−the chemotherapeutic agent group or the group of the compound as shown in Formula I)/the control group*100%
(§2) It is regarded as effective remission when the feces reduction rate of mice in the group of the compound as shown in Formula I is reduced compared with that in the chemotherapeutic agent group.
(§3) The feces amount of mice within 3 hours was observed and recorded every day. At the end of the experiment, the number of mice in the group of the compound as shown in Formula I whose feces reduction rate was lower than that of mice in the chemotherapeutic agent group was recorded. Table 6 lists various animal experiment combinations of chemotherapeutic agents and the compound as shown in Formula I, as well as the corresponding experimental results.

[2] = test system: Chemotherapeutic agent-caused constipation models of Balb/c mice; assay: Relieving effect on constipation caused by a chemotherapeutic agent (Examples 202-364); type: in vivo; details: for feces reduction rates compared with the chemotherapeutic agent group: administered before the chemotherapeutic agent, Table 4 and FIG. 4
Text: Construction of mouse animal models: Chemotherapeutic agent-caused constipation models of Balb/c mice were constructed according to the administration mode and frequency of the chemotherapeutic agent as shown in Table 4. […] Thus, chemotherapeutic agent-caused constipation models of mice are very good models to mimic constipation caused by the chemotherapeutic agent.
Balb/c mice were fed for 1 week, and then divided into groups. The experiment was divided into a control group, a chemotherapeutic agent group, and a group of the compound as shown in Formula I, each of which comprised 10 mice, to perform the administration experiment, for which the administration dosage, mode, time and frequency were shown in Table 4. The control group: being injected or intragastrically administered with the same solvent as that used in the group of the compound as shown in Formula I (the administration mode and time were shown in Table 4), and then being injected or intragastrically administered with the same solvent as that used in the chemotherapeutic agent group (the administration mode was shown in Table 4); the chemotherapeutic agent group: being injected or intragastrically administered with the same solvent as that used in the group of the compound as shown in Formula I (the administration mode and time was shown in Table 4), and then being injected or intragastrically administered with the chemotherapeutic agent (the type, administration mode and dosage were shown in Table 4); the group of the compound as shown in Formula I: being injected or intragastrically administered with the compound as shown in Formula I (the administration mode and time was shown in Table 4), and then being administered with the chemotherapeutic agent (the administration mode and dosage were shown in Table 4).
as §1, §2
as §3, with “4” for “6”

[3] = continuous administration of fluorouracil for less than 7 days
[4] = continuous administration of the chemotherapeutic agent for 7 days or less

CC(C)N1CCN(c2ccc(Nc3ncc4cc5n(c4n3)C3(CCCCC3)CNC5=O)nc2)CC1 [Compound IV hydrochloride, Lerociclibdihydrochloride]
Relative remission rate (%) ([1]; Example 400, Fluorouracil (5-Fu) 100 mg/kg intraperitoneal injection once a day for 3 days, compound intraperitoneal injection, 2 h before the chemotherapeutic agent, dosage cell prints 'Once a day, for 3 days', frequency cell 'Single', experimental cycle 7 days): 50%
Relative remission rate (%) ([1]; Example 401, Fluorouracil (5-Fu) 100 mg/kg intraperitoneal injection once a day for 3 days, compound intraperitoneal injection, 12 h before the chemotherapeutic agent, dosage cell prints 'Once a day, for 3 days', frequency cell 'Single', experimental cycle 7 days): 30%
Relative remission rate (%) ([2]; Example 353, Fluorouracil 100 (F), oxaliplatin 5 (O), irinotecan 100 (I) and tetrahydrofolic acid 100 (L) mg/kg intraperitoneal injection single, compound intraperitoneal injection 100 mg/kg single, 0.5 h before chemotherapeutic agent, cycle 7 days): 20%
Relative remission rate (%) ([2]; Example 354, Fluorouracil 100 (F), oxaliplatin 5 (O), irinotecan 100 (I) and tetrahydrofolic acid 100 (L) mg/kg intraperitoneal injection single, compound intraperitoneal injection 100 mg/kg single, 12 h before chemotherapeutic agent, cycle 7 days): 60%
Relative remission rate (%) ([2]; Example 357, Topotecan intraperitoneal injection 10 mg/kg single, compound oral administration 100 mg/kg single, 24 h before chemotherapeutic agent, cycle 14 days): 30%
Relative remission rate (%) ([2]; Example 358, Topotecan intravenous injection 20 mg/kg single, compound oral administration 100 mg/kg single, 12 h before chemotherapeutic agent, cycle 14 days): 70%

O=C1NCC2(CCCCC2)n2c1cc1cnc(Nc3ccc(N4CCC(N5CCOCC5)CC4)cn3)nc12 [Compound III]
Relative remission rate (%) ([1]; Example 398, Fluorouracil (5-Fu) 100 mg/kg intraperitoneal injection once a day for 3 days, compound 100 mg/kg intravenous injection once a day for 3 days, 2 h before the chemotherapeutic agent, experimental cycle 7 days): 40%
relieving effects on constipation [1, 3]: significant relieving effects
relieving effects on constipation [1, 4]: have relieving effects
Relative remission rate (%) ([2]; Example 320, Fluorouracil 125 (F) and irinotecan 240 (I) mg/kg intraperitoneal injection single, compound subcutaneous injection 100 mg/kg single, 0.5 h before chemotherapeutic agent, cycle 7 days): 50%
Relative remission rate (%) ([2]; Example 321, Fluorouracil 125 (F) and irinotecan 240 (I) mg/kg intraperitoneal injection single, compound subcutaneous injection 100 mg/kg single, 24 h before chemotherapeutic agent, cycle 7 days): 20%
Relative remission rate (%) ([2]; Example 349, Fluorouracil 100 (F), oxaliplatin 5 (O), irinotecan 100 (I) and tetrahydrofolic acid 100 (L) mg/kg intraperitoneal injection single, compound oral administration 150 mg/kg single, 6 h before chemotherapeutic agent, cycle 7 days): 30%
Relative remission rate (%) ([2]; Example 350, Fluorouracil 100 (F), oxaliplatin 5 (O), irinotecan 100 (I) and tetrahydrofolic acid 100 (L) mg/kg intraperitoneal injection single, compound oral administration 150 mg/kg single, 12 h before chemotherapeutic agent, cycle 7 days): 30%
Relative remission rate (%) ([2]; Example 362, Etoposide 60 (E) and carboplatin 5 (C) mg/kg intraperitoneal injection single, compound oral administration 100 mg/kg single, 0.5 h before chemotherapeutic agent, cycle 10 days): 50%
feces reduction rates compared with the chemotherapeutic agent group [2]: reduced to different degrees

CC(C)N1CCN(c2ccc(Nc3ncc4cc5n(c4n3)C3(CCCCC3)CNC5=O)nc2)CC1 [Compound IV, Lerociclib]
Relative remission rate (%) ([1]; Example 399, Fluorouracil (5-Fu) 100 mg/kg intraperitoneal injection once a day for 3 days, compound 100 mg/kg oral administration once a day for 3 days, 4 h before the chemotherapeutic agent, experimental cycle 7 days): 50%
relieving effects on constipation [1, 3]: significant relieving effects
relieving effects on constipation [1, 4]: have relieving effects
Relative remission rate (%) ([2]; Example 246, Fluorouracil (5-Fu) intravenous injection 250 mg/kg single, compound oral administration 100 mg/kg single, 0.5 h before chemotherapeutic agent, cycle 10 days): 30%
Relative remission rate (%) ([2]; Example 247, Fluorouracil (5-Fu) intravenous injection 250 mg/kg single, compound oral administration 100 mg/kg single, 4 h before chemotherapeutic agent, cycle 10 days): 60%
Relative remission rate (%) ([2]; Example 248, Fluorouracil (5-Fu) intravenous injection 250 mg/kg single, compound oral administration 100 mg/kg single, 12 h before chemotherapeutic agent, cycle 10 days): 20%
Relative remission rate (%) ([2]; Example 351, Fluorouracil 100 (F), oxaliplatin 5 (O), irinotecan 100 (I) and tetrahydrofolic acid 100 (L) mg/kg intraperitoneal injection single, compound oral administration 100 mg/kg single, 4 h before chemotherapeutic agent, cycle 7 days): 60%
Relative remission rate (%) ([2]; Example 352, Fluorouracil 100 (F), oxaliplatin 5 (O), irinotecan 100 (I) and tetrahydrofolic acid 100 (L) mg/kg intraperitoneal injection single, compound oral administration 100 mg/kg single, 24 h before chemotherapeutic agent, cycle 7 days): 30%
Relative remission rate (%) ([2]; Example 363, Gemcitabine and carboplatin intraperitoneal injection 120 mg/kg single, compound oral administration 100 mg/kg single, 4 h before chemotherapeutic agent, cycle 8 days): 60%
feces reduction rates compared with the chemotherapeutic agent group [2]: reduced to different degrees

CN1CCN(c2ccc(Nc3ncc4cc5n(c4n3)C3(CCCCC3)CNC5=O)nc2)CC1 [Compound I hydrochloride, Trilaciclib dihydrochloride]
Relative remission rate (%) ([1]; Example 393, Fluorouracil (5-Fu) 100 mg/kg intraperitoneal injection once a day for 5 days, compound 150 mg/kg intraperitoneal injection once a day for 5 days, 0.5 h before the chemotherapeutic agent, experimental cycle 9 days): 70%
Relative remission rate (%) ([1]; Example 394, Fluorouracil (5-Fu) 100 mg/kg intraperitoneal injection once a day for 5 days, compound 150 mg/kg intraperitoneal injection once a day for 5 days, 4 h before the chemotherapeutic agent, experimental cycle 9 days): 50%
Relative remission rate (%) ([1]; Example 395, Fluorouracil (5-Fu) 100 mg/kg intraperitoneal injection once a day for 5 days, compound 150 mg/kg intraperitoneal injection once a day for 5 days, 12 h before the chemotherapeutic agent, experimental cycle 9 days): 30%
Relative remission rate (%) ([2]; Example 315, Fluorouracil 125 (F) and irinotecan 240 (I) mg/kg intraperitoneal injection single, compound intraperitoneal injection 150 mg/kg single, 0.5 h before chemotherapeutic agent, cycle 10 days): 20%
Relative remission rate (%) ([2]; Example 316, Fluorouracil 125 (F) and irinotecan 240 (I) mg/kg intraperitoneal injection single, compound intraperitoneal injection 150 mg/kg single, 4 h before chemotherapeutic agent, cycle 10 days): 60%
Relative remission rate (%) ([2]; Example 317, Fluorouracil 125 (F) and irinotecan 240 (I) mg/kg intraperitoneal injection single, compound intraperitoneal injection 150 mg/kg single, 12 h before chemotherapeutic agent, cycle 10 days): 40%
Relative remission rate (%) ([2]; Example 343, Fluorouracil 100 (F), oxaliplatin 5 (O), irinotecan 100 (I) and tetrahydrofolic acid 100 (L) mg/kg intravenous injection single, compound intraperitoneal injection 150 mg/kg single, 0.5 h before chemotherapeutic agent, cycle 8 days): 30%
Relative remission rate (%) ([2]; Example 344, Fluorouracil 100 (F), oxaliplatin 5 (O), irinotecan 100 (I) and tetrahydrofolic acid 100 (L) mg/kg intravenous injection single, compound intraperitoneal injection 150 mg/kg single, 12 h before chemotherapeutic agent, cycle 8 days): 70%

O=C1NCC2(CCCCC2)n2c1cc1cnc(Nc3ccc(N4CCNCC4)cn3)nc12 [Compound II]
Relative remission rate (%) ([1]; Example 397, Fluorouracil (5-Fu) 100 mg/kg intraperitoneal injection once a day for 3 days, compound 100 mg/kg intraperitoneal injection once a day for 3 days, 0.5 h before the chemotherapeutic agent, experimental cycle 7 days): 20%
relieving effects on constipation [1, 3]: significant relieving effects
relieving effects on constipation [1, 4]: have relieving effects
Relative remission rate (%) ([2]; Example 283, Oxaliplatin intravenous injection 25 mg/kg single, compound intramuscular injection 100 mg/kg single, 1 h before chemotherapeutic agent, cycle 7 days): 50%
Relative remission rate (%) ([2]; Example 284, Oxaliplatin intravenous injection 25 mg/kg single, compound intramuscular injection 100 mg/kg single, 6 h before chemotherapeutic agent, cycle 7 days): 30%
Relative remission rate (%) ([2]; Example 285, Oxaliplatin intravenous injection 25 mg/kg single, compound intramuscular injection 100 mg/kg single, 12 h before chemotherapeutic agent, cycle 7 days): 30%
Relative remission rate (%) ([2]; Example 347, Fluorouracil 100 (F), oxaliplatin 5 (O), irinotecan 100 (I) and tetrahydrofolic acid 100 (L) mg/kg intraperitoneal injection single, compound intravenous injection 100 mg/kg single, 0.5 h before chemotherapeutic agent, cycle 7 days): 70%
Relative remission rate (%) ([2]; Example 348, Fluorouracil 100 (F), oxaliplatin 5 (O), irinotecan 100 (I) and tetrahydrofolic acid 100 (L) mg/kg intraperitoneal injection single, compound intravenous injection 100 mg/kg single, 2 h before chemotherapeutic agent, cycle 7 days): 50%
Relative remission rate (%) ([2]; Example 359, Gemcitabine (GEM) intraperitoneal injection 120 mg/kg single, compound oral administration 100 mg/kg single, 12 h before chemotherapeutic agent, cycle 8 days): 40%
Relative remission rate (%) ([2]; Example 361, Etoposide 60 (E) and carboplatin 5 (C) mg/kg intraperitoneal injection single, compound oral administration 100 mg/kg single, 2 h before chemotherapeutic agent, cycle 10 days): 60%
Relative remission rate (%) ([2]; Example 364, Gemcitabine 120 (G) and carboplatin 5 (C) mg/kg intravenous injection single, compound oral administration 100 mg/kg single, 24 h before chemotherapeutic agent, cycle 8 days): 30%
feces reduction rates compared with the chemotherapeutic agent group [2]: reduced to different degrees
